Data taken from ChEMBL document CHEMBL5376023, “The allure of targets for novel drugs” (RSC Med Chem, 2024).
In brackets after ≈: the same amount, converted by molar mass.

Tests used:
[1] = tested on: Mycobacterium tuberculosis; assay: Antimycobacterial activity against Mycobacterium tuberculosis HN878 assessed as inhibition of mycobacterial growth incubated for 5 days; format: functional; conditions: HN878, 120 h, time 5 day
[2] = tested on: Cryptococcus neoformans; assay: […] activity against Cryptococcus neoformans assessed as inhibition of […]; format: functional, organism-based
[3] = tested on: [Candida] auris; assay: Antifungal activity against Candida auris assessed as inhibition of fungal growth; format: functional, organism-based; conditions: Candidozyma auris
[4] = tested on: Aspergillus fumigatus; assay: Antifungal activity against Aspergillus fumigatus ATCC 13073 strain assessed as […] growth inhibition; format: functional, organism-based
[5] = tested on: Nakaseomyces glabratus; assay: Antifungal activity against Candida glabrata ATCC 90030 assessed as inhibition of microbial growth incubated for 24 hrs by broth microdilution method; format: functional, organism-based; conditions: ATCC 90030, 24 h
[6] = tested on: Aspergillus flavus; assay: Antifungal activity against Aspergillus flavus assessed as inhibition of fungal growth; format: functional, organism-based
[7] = tested on: Rhizopus arrhizus; assay: Antifungal activity against Rhizopus arrhizus assessed as fungal growth inhibition; format: functional, organism-based
[8] = tested on: Candida albicans; assay: Antifungal activity against Candida albicans assessed as inhibition of fungal growth; format: functional, organism-based
[9] = tested on: Fusarium oxysporum; assay: Antifungal activity against Fusarium oxysporum assessed as inhibition of fungal growth; format: functional, organism-based
[10] = tested on: Nakaseomyces glabratus; assay: Antifungal activity against Candida glabrata MTCC 3019 assessed as inhibition of fungal growth incubated for 24 hrs by agar well diffusion method; format: functional, organism-based; conditions: MTCC 3019, 24 h

Cn1cc(NC(=O)c2cc(NC(=O)c3ccc(/C=C/c4ccc(C(F)(F)F)cc4)cc3)cn2C)cc1C(=O)NCCC(=N)N
MIC99 [1]: 1.56 µM (≈ 0.945 µg/mL)

CN(C)c1ccc(/C=C/c2ccc(C(=O)Nc3cc(C(=O)Nc4cc(C(=O)NCCC(=N)N)n(C)c4)n(C)c3)cn2)cc1
IC50 [2]: 0.8 µg/mL (≈ 1.38 µM)
IC50 [3]: 0.8 µg/mL (≈ 1.38 µM)
IC50 [4]: 0.8 µg/mL (≈ 1.38 µM)
IC50 [5]: 0.8 µg/mL
IC50 [6]: 0.8 µg/mL (≈ 1.38 µM)
IC50 [7]: 0.8 µg/mL (≈ 1.38 µM)
IC50 [8]: 0.8 µg/mL (≈ 1.38 µM)
IC50 [9]: 0.8 µg/mL (≈ 1.38 µM)
IC50 [10]: 0.8 µg/mL (≈ 1.38 µM)
